Experimental data: paper PMC4639830, “Inhibition of DYRK1A and GSK3B induces human β-cell proliferation” (Nature Communications, 2015)
pIC50: −log10 of the molar value. Entries after “also recorded” stand apart in the source; their conditions may differ.

How the values were obtained:
[1] = system: β-cells from dissociated adult primary human islets; assay: Human β-cell proliferation assay, EdU incorporation, dissociated islets; type: cell-based; settings: for human β-cell proliferation (EdU incorporation), in words: dispersed human islets; for effect of co-treatment on human β-cell proliferation induced by GNF4877: GNF4877 2 μM, FK506 12 nM to 1 μM
Protocol: (§1) Rat or human β-cell proliferation assays were performed using dissociated primary rat or human islets. Islets were treated with the indicated compounds in the presence of EdU for 4 days before fixing and staining. […] For intact islet assays, primary human islets were treated for 7 or 8 days (as indicated in the legend). Rat dissociated islets were cultured in RPMI medium containing 10% FBS and human dissociated islets were cultured in PIM-S media (Prodo laboratories) with 10% human […].

[2] = system: adult rat primary β-cells; assay: Rat β-cell proliferation assay, EdU incorporation, dissociated islets; type: cell-based; settings: for rat β-cell proliferation (EdU incorporation), in words: dispersed rat islets; for β-cell proliferation in combination with GNF4877: sub-EC50 GNF4877, Figs 7a,d (human and rat β-cells); for primary rat β-cell proliferation, combination of Chiron99021 with TG003: 4 days
Protocol: as §1

Dyrk1a = target: T1, Dyrk1a (Homo sapiens, UniProt Q13627); assay: Dyrk1a kinase activity, biochemical assay
T1 construct: purchased Ambit KINOMEscan

rat islet cells = assay: eFluor670 vital dye dilution (cell division); type: cell-based; settings: 5 days treatment
Description: The extent of proliferation of human islet cells was too low to be detected with this method, consistent with the lower level of EdU incorporation induced in human islets.

Gsk3b = Gsk3b (Homo sapiens, UniProt P49841); assay: Gsk3b biochemical kinase assay
[3] = system: β-catenin nuclear localization in primary rat islets; assay: β-Catenin nuclear translocation; type: cell-based
Protocol: At the end of the treatment, cells were fixed with 4% paraformaldehyde, blocked and permeabilized, and stained by standard immunofluorescence techniques for β-catenin (Cell signaling, #9562L; dilution 1:500), NFATc1 (Santa Cruz, rabbit polyclonal, SC-7294; dilution 1:200) or NFAT3c (Santa Cruz, SC-8321; dilution 1:200) and nuclear DNA was stained with DAPI (Molecular Probes; dilution 1:1,000). EdU incorporation was measured by click reaction with AlexaFluor-647-azide (Invitrogen). Plates were imaged with confocal microscope and analysed by Metamorph (Molecular Devices).

Gsk3b, sequence (P49841 whole entry, species assumed): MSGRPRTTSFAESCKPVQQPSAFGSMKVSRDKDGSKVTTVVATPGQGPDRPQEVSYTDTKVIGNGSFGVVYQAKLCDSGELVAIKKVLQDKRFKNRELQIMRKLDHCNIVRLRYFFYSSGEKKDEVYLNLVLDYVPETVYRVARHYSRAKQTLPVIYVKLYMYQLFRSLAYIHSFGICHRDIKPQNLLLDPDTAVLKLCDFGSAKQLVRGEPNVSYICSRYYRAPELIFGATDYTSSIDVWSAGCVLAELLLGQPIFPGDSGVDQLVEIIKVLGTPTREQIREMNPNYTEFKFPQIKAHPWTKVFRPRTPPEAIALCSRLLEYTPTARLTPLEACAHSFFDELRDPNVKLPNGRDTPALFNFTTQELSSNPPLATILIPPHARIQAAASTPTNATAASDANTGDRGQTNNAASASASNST

Compound	human β-cell proliferation (EdU incorporation), in words [1]	rat β-cell proliferation (EdU incorporation), in words [2]	also measured
O=C1Cc2c([nH]c3ccc(Br)cc23)-c2ncccc2N1 [1-Akp]	without any significant effects on human β-cell proliferation	significantly lower extent than GNF7156 and GNF4877	
Nc1ncnc2c1c(I)cn2[C@@H]1O[C@H](CO)[C@@H](O)[C@H]1O [5-IT]	induced β-cell proliferation	induced β-cell proliferation	
COC(=O)C1=C(C)NC(C)=C([N+](=O)[O-])C1c1ccccc1C(F)(F)F (stereo not drawn) [Bay K8644]			β-cell proliferation in combination with GNF4877 [2]: showed additive activity with GNF4877
Cc1cnc(-c2cnc(NCCNc3ccc(C#N)cn3)nc2-c2ccc(Cl)cc2Cl)[nH]1 [Chiron99021]	without any significant effects on human β-cell proliferation	significantly lower extent than GNF7156 and GNF4877	primary rat β-cell proliferation, combination of Chiron99021 with TG003 [2]: additive induction of primary rat β-cell proliferation
C=CC[C@@H]1/C=C(\C)C[C@H](C)C[C@H](OC)[C@H]2O[C@@](O)(C(=O)C(=O)N3CCCC[C@H]3C(=O)O[C@H](/C(C)=C/[C@@H]3CC[C@@H](O)[C@H](OC)C3)[C@H](C)[C@@H](O)CC1=O)[C@H](C)C[C@@H]2OC [FK506]			effect of co-treatment on human β-cell proliferation induced by GNF4877 [1]: reduced by co-treatment
Nc1ncc(-c2ccccc2)nc1C(=O)Nc1ccccc1N1CCC(C(=O)O)CC1 [GNF6324]	completely inactive	completely inactive; also recorded: did not induce EdU incorporation in rat β-cells	pIC50 (Dyrk1a): < 4.30; eFluor670 staining intensity relative to control (rat islet cells): nor cause a decrease in eFluor670 staining; potency on Gsk3b, in words (Gsk3b): retained similar potency to GNF7156 on Gsk3b; β-catenin nuclear translocation [3]: capable of inducing nuclear localization of β-catenin
[Cl-].[Li+] [LiCl]	without any significant effects on human β-cell proliferation	significantly lower extent than GNF7156 and GNF4877	
CCN1/C(=C/C(C)=O)Sc2ccc(OC)cc21 [TG003]	induced β-cell proliferation	induced β-cell proliferation	primary rat β-cell proliferation, combination of Chiron99021 with TG003 [2]: additive induction of primary rat β-cell proliferation
COc1ccc(Cl)cc1C(=O)NCCc1ccc(S(=O)(=O)NC(=O)NC2CCCCC2)cc1 [glibenclamide]			β-cell proliferation in combination with GNF4877 [2]: showed additive activity with GNF4877
COc1ccc2c(c1)[nH]c1c(C)nccc12 [harmine]	induced β-cell proliferation	induced β-cell proliferation	
cyclosporin A [CsA]			effect of co-treatment on human β-cell proliferation induced by GNF4877 [1]: reduced by co-treatment
